Columns and labels:
Assay in all cases: post-emergence herbicidal activity, greenhouse
Format in all cases: in vivo
[1] = tested on: Barnyardgrass
Text: (§1) A good grade of top soil is placed in aluminum pans having holes in the bottom and compacted to a depth of 0.95 to 1.27 cm. from the top of the pan. A predetermined number of seeds of each of several dicotyledonous and monocotyledonous annual plant species and/or vegetative propagules for the perennial plant species are placed on the soil and pressed into the soil surface. The seeds and/or vegetative propagules are covered with soil and leveled. The pans are then placed on a sand bench in the greenhouse and watered from below as needed. After the plants reach the desired age (two to three weeks), each pan except for the control pans is removed individually to a spraying chamber and sprayed by means of an atomizer operating at a positive air pressure of approximately 1.46 kg/cm^2 absolute. The atomizer contains 6 ml. of a solution or suspension of the chemical. In that 6 ml., is an amount of a cyclohexanone emulsifying agent mixture to give a spray solution or suspension which contains about 0.4% by weight of the emulsifier. The spray solution or suspension contains a sufficient amount of the candidate chemical in order to give application rates corresponding to those set forth in the tables. The spray solution is prepared by taking an aliquot of a 1.0% by weight stock solution or suspension of the candidate chemical in an organic solvent such as acetone or tetrahydrofuran or in water. The emulsifying agent employed is a mixture comprising 35 weight percent butylamine dodecylbenzene sulfonate and 65 weight percent of a tall oil ethylene oxide condensate having about 11 moles of ethylene oxide per mole of tall oil. The pans are returned to the greenhouse and watered as before and the injury to the plants as compared to the control is observed at approximately two and four weeks as indicated in the tables under WAT and the results recorded. In some instances, the two-week observations are omitted.
(§2) The post-emergence herbicidal activity index used in Table I is as follows: […]

[2] = tested on: Cocklebur
Text: as §1, §2

[3] = tested on: Crabgrass; settings: Table II
Text: as §1, §2

[4] = tested on: Downy Brome
Text: as §1, §2

[5] = tested on: Hemp Sesbania; settings: Table II
Text: as §1, §2

[6] = tested on: Johnsongrass; settings: Table I, 4 WAT
Text: as §1, §2

[7] = tested on: Lambsquarters
Text: as §1, §2

[8] = tested on: Morningglory
Text: as §1, §2

[9] = tested on: Panicum Spp; settings: Table II
Text: as §1, §2

[10] = tested on: Quackgrass; settings: Table I, 4 WAT
Text: as §1, §2

[11] = tested on: Rice; settings: Table II
Text: as §1, §2

[12] = tested on: Smartweed
Text: as §1, §2

[13] = tested on: Sorghum; settings: Table II
Text: as §1, §2

[14] = tested on: Soybean; settings: Table II
Text: as §1, §2

[15] = tested on: Sugar Beet; settings: Table II
Text: as §1, §2

[16] = tested on: Velvetleaf
Text: as §1, §2

[17] = tested on: Wheat; settings: Table II
Text: as §1, §2

[18] = tested on: Wild Buckwheat; settings: Table II
Text: as §1, §2

[19] = tested on: Yellow Nutsedge; settings: Table I, 4 WAT
Text: as §1, §2

`N#CCN(CP(=O)(Oc1ccccc1)Oc1ccccc1)SSCCc1ccccc1` [XII, Phosphonic acid, [[(cyanomethyl)[(2-phenylethyl)dithio]amino]methyl]-, diphenyl ester] was tested, and the “post-emergence herbicidal activity index” value ([1]; Table I, 4 WAT, 5.6 kg/h) was 2 (50-74% control), the “post-emergence herbicidal activity index” value ([1]; Table I, 4 WAT, 11.2 kg/h) was 2 (50-74% control) and the “post-emergence herbicidal activity index” value ([1]; Table II, 2 WAT, 0.28 kg/h) was 0 (0-24% control). The “post-emergence herbicidal activity index” value ([1]; Table II, 4 WAT, 1.12 kg/h) was 0 (0-24% control), the “post-emergence herbicidal activity index” value ([1]; Table II, 4 WAT, 5.6 kg/h) was 2 (50-74% control) and the “post-emergence herbicidal activity index” value ([2]; Table I, 4 WAT, 5.6 kg/h) was 2 (50-74% control). The “post-emergence herbicidal activity index” value ([2]; Table I, 4 WAT, 11.2 kg/h) was 4 (100% control), the “post-emergence herbicidal activity index” value ([2]; Table II, 2 WAT, 0.28 kg/h) was 0 (0-24% control) and the “post-emergence herbicidal activity index” value ([2]; Table II, 4 WAT, 1.12 kg/h) was 0 (0-24% control). The “post-emergence herbicidal activity index” value ([2]; Table II, 4 WAT, 5.6 kg/h) was 2 (50-74% control), the “post-emergence herbicidal activity index” value ([3]; 2 WAT, 0.28 kg/h) was 0 (0-24% control) and the “post-emergence herbicidal activity index” value ([3]; 4 WAT, 1.12 kg/h) was 0 (0-24% control). The “post-emergence herbicidal activity index” value ([3]; 4 WAT, 5.6 kg/h) was 3 (75-99% control), the “post-emergence herbicidal activity index” value ([4]; Table I, 4 WAT, 5.6 kg/h) was 0 (0-24% control) and the “post-emergence herbicidal activity index” value ([4]; Table I, 4 WAT, 11.2 kg/h) was 3 (75-99% control). For the same compound, the “post-emergence herbicidal activity index” value ([4]; Table II, 2 WAT, 0.28 kg/h) was 0 (0-24% control), the “post-emergence herbicidal activity index” value ([4]; Table II, 4 WAT, 1.12 kg/h) was 0 (0-24% control) and the “post-emergence herbicidal activity index” value ([4]; Table II, 4 WAT, 5.6 kg/h) was 2 (50-74% control). The “post-emergence herbicidal activity index” value ([5]; 2 WAT, 0.28 kg/h) was 0 (0-24% control), the “post-emergence herbicidal activity index” value ([5]; 4 WAT, 1.12 kg/h) was 0 (0-24% control) and the “post-emergence herbicidal activity index” value ([5]; 4 WAT, 5.6 kg/h) was 1 (25-49% control). For the same compound, the “post-emergence herbicidal activity index” value ([6]; 5.6 kg/h) was 1 (25-49% control), the “post-emergence herbicidal activity index” value ([6]; 11.2 kg/h) was 4 (100% control) and the “post-emergence herbicidal activity index” value ([7]; Table I, 4 WAT, 5.6 kg/h) was 4 (100% control). The “post-emergence herbicidal activity index” value ([7]; Table I, 4 WAT, 11.2 kg/h) was 4 (100% control), the “post-emergence herbicidal activity index” value ([7]; Table II, 2 WAT, 0.28 kg/h) was 0 (0-24% control) and the “post-emergence herbicidal activity index” value ([7]; Table II, 4 WAT, 1.12 kg/h) was 0 (0-24% control). The “post-emergence herbicidal activity index” value ([7]; Table II, 4 WAT, 5.6 kg/h) was 3 (75-99% control), the “post-emergence herbicidal activity index” value ([8]; Table I, 4 WAT, 5.6 kg/h) was 1 (25-49% control) and the “post-emergence herbicidal activity index” value ([8]; Table I, 4 WAT, 11.2 kg/h) was 1 (25-49% control). For the same compound, the “post-emergence herbicidal activity index” value ([8]; Table II, 2 WAT, 0.28 kg/h) was 0 (0-24% control), the “post-emergence herbicidal activity index” value ([8]; Table II, 4 WAT, 1.12 kg/h) was 0 (0-24% control) and the “post-emergence herbicidal activity index” value ([8]; Table II, 4 WAT, 5.6 kg/h) was 1 (25-49% control). The “post-emergence herbicidal activity index” value ([9]; 2 WAT, 0.28 kg/h) was 0 (0-24% control), the “post-emergence herbicidal activity index” value ([9]; 4 WAT, 1.12 kg/h) was 0 (0-24% control) and the “post-emergence herbicidal activity index” value ([9]; 4 WAT, 5.6 kg/h) was 1 (25-49% control). The “post-emergence herbicidal activity index” value ([10]; 5.6 kg/h) was 0 (0-24% control), the “post-emergence herbicidal activity index” value ([10]; 11.2 kg/h) was 3 (75-99% control) and the “post-emergence herbicidal activity index” value ([11]; 2 WAT, 0.28 kg/h) was 0 (0-24% control). The “post-emergence herbicidal activity index” value ([11]; 4 WAT, 1.12 kg/h) was 0 (0-24% control), the “post-emergence herbicidal activity index” value ([11]; 4 WAT, 5.6 kg/h) was 0 (0-24% control) and the “post-emergence herbicidal activity index” value ([12]; Table I, 4 WAT, 5.6 kg/h) was 0 (0-24% control). The “post-emergence herbicidal activity index” value ([12]; Table I, 4 WAT, 11.2 kg/h) was 3 (75-99% control), the “post-emergence herbicidal activity index” value ([12]; Table II, 2 WAT, 0.28 kg/h) was 0 (0-24% control) and the “post-emergence herbicidal activity index” value ([12]; Table II, 4 WAT, 1.12 kg/h) was 0 (0-24% control). For the same compound, the “post-emergence herbicidal activity index” value ([12]; Table II, 4 WAT, 5.6 kg/h) was 2 (50-74% control), the “post-emergence herbicidal activity index” value ([13]; 2 WAT, 0.28 kg/h) was 0 (0-24% control) and the “post-emergence herbicidal activity index” value ([13]; 4 WAT, 1.12 kg/h) was 1 (25-49% control). The “post-emergence herbicidal activity index” value ([13]; 4 WAT, 5.6 kg/h) was 3 (75-99% control), the “post-emergence herbicidal activity index” value ([14]; 2 WAT, 0.28 kg/h) was 0 (0-24% control) and the “post-emergence herbicidal activity index” value ([14]; 4 WAT, 1.12 kg/h) was 0 (0-24% control). For the same compound, the “post-emergence herbicidal activity index” value ([14]; 4 WAT, 5.6 kg/h) was 1 (25-49% control), the “post-emergence herbicidal activity index” value ([15]; 2 WAT, 0.28 kg/h) was 0 (0-24% control) and the “post-emergence herbicidal activity index” value ([15]; 4 WAT, 1.12 kg/h) was 0 (0-24% control). For the same compound, the “post-emergence herbicidal activity index” value ([15]; 4 WAT, 5.6 kg/h) was 1 (25-49% control), the “post-emergence herbicidal activity index” value ([16]; Table I, 4 WAT, 5.6 kg/h) was 0 (0-24% control) and the “post-emergence herbicidal activity index” value ([16]; Table I, 4 WAT, 11.2 kg/h) was 2 (50-74% control). The “post-emergence herbicidal activity index” value ([16]; Table II, 2 WAT, 0.28 kg/h) was 0 (0-24% control), the “post-emergence herbicidal activity index” value ([16]; Table II, 4 WAT, 1.12 kg/h) was 0 (0-24% control) and the “post-emergence herbicidal activity index” value ([16]; Table II, 4 WAT, 5.6 kg/h) was 2 (50-74% control). The “post-emergence herbicidal activity index” value ([17]; 2 WAT, 0.28 kg/h) was 0 (0-24% control), the “post-emergence herbicidal activity index” value ([17]; 4 WAT, 1.12 kg/h) was 0 (0-24% control) and the “post-emergence herbicidal activity index” value ([17]; 4 WAT, 5.6 kg/h) was 1 (25-49% control). The “post-emergence herbicidal activity index” value ([18]; 2 WAT, 0.28 kg/h) was 0 (0-24% control), the “post-emergence herbicidal activity index” value ([18]; 4 WAT, 1.12 kg/h) was 0 (0-24% control) and the “post-emergence herbicidal activity index” value ([18]; 4 WAT, 5.6 kg/h) was 2 (50-74% control). The “post-emergence herbicidal activity index” value ([19]; 5.6 kg/h) was 2 (50-74% control) and the “post-emergence herbicidal activity index” value ([19]; 11.2 kg/h) was 2 (50-74% control).

From US4508663A, “Process for preparing thiosulfenamide derivatives of N-phosphonomethylglycinonitriles” (Monsanto Company, priority 1983, dated 1985)
